Consider 11 compounds from patent publication EP4711369A1, “1H-[1,2,3]TRIAZOLO[4,5-H]QUINAZOLINE COMPOUNDS AS PROTEIN KINASE INHIBITORS” (Chengdu Cynogen Bio-Pharmaceutical Technology Co., Ltd., priority 2023, dated 2024).

Assay [1] deals with Human ovarian cancer OVCAR3 cells. As to the kind of experiment: Assay of cell proliferation (CellTiter-Glo). As to conditions: 6 days, read-out: OVCAR3 IC50 of cell proliferation inhibitory activity. It is filed as cell-based. As to the method:
(§1) Human ovarian cancer OVCAR3 cells were inoculated at 2000 cells/well in a 96-well plate and cultured in RPMI 1640 medium containing 20% FBS at 37 °C and 5% CO2 overnight in an incubator. The next day, the compounds were subjected to a three-fold gradient dilution in DMSO from a peak concentration of 2 mM to give nine concentrations. Then, the compounds were diluted 3:200 in growth medium, and finally diluted 1:3 in the cell culture supernatant to give a culture supernatant containing 0.5% DMSO, with the compounds treatment concentrations ranging from 10 µM to 0.1 nM. The cells and the compounds were incubated at 37 °C and 5% CO2 for 6 days. Then, cell proliferation assay was performed using the CellTiter-Glo (manufacturer: Promega, Cat. No. G9242), and luminescence signals were read using a multifunctional microplate reader (model: Synergy H1, manufacturer: BiotTek). IC50 values were calculated by fitting of the concentration-response curves with a four-parameter analysis method using GraphPad Prism software.

For assay [2], the target named is CDK2/cyclin E (Homo sapiens, UniProt P24941). As to the kind of experiment: Assay of kinase activity (ADP-Glo). As to conditions: kinase inhibitory activity, read-out: CDK2/E1 IC50. In kind it is biochemical. As for the experimental part:
(§2) CDK/cyclin catalyzes the phosphorylation of a substrate, which concomitantly consumes ATP and produces ADP. The inhibition rate (%) in the presence of a small molecule inhibitor was assessed by measuring the amount of ADP generated in the reaction. The assay compounds were thoroughly mixed by vortexing and then diluted in DMSO to 100× the assay concentration. […] A 2× kinase solution was prepared using a 1× kinase reaction buffer (50 mM Hepes, 10 mM MgCl2, 0.01% Brij35, 2 mM DTT). 2 µL of the kinase solution was transferred to the 384-well assay plate, and the plate was centrifuged at 1000 rpm for 60 seconds in a microplate centrifuge. The plate was incubated at 25 °C in a biochemical incubator for 10 minutes. A 2x mixture of substrate and ATP was prepared in the kinase reaction buffer. Then, 2 µL of the mixture of substrate and ATP was added to the 384-well assay plate. The plate was centrifuged at 1000 rpm for 60 seconds in a microplate centrifuge, and incubated at 25 °C in a biochemical incubator for 60 minutes. 4 µL of ADP-Glo Reagent (Cat. No. V9103, manufacturer: Promega) incubated at 25 °C in a biochemical incubator was added to each well of the 384-well assay plate. The plate was centrifuged at 1000 rpm for 60 seconds in a microplate centrifuge, and incubated at 25 °C in a biochemical incubator for 40 minutes. 8 µL of Detection Reagent incubated at 25 °C in a biochemical incubator was added to each well of the 384-well assay plate. The plate was centrifuged at 1000 rpm for 60 seconds in a microplate centrifuge, and incubated at 25 °C in a biochemical incubator for 40 minutes. Finally, luminescence signals were read using a multifunctional microplate reader (model: PHERAstar FSX, manufacturer: BMG). IC50 values were calculated by nonlinear fitting of the concentration-response curves using GraphPad Prism software.

For assay [3], the target named is CDK4/cyclin D1 (Homo sapiens, UniProt P11802). Nature of the assay: Assay of kinase activity (ADP-Glo). It is filed as biochemical. As to conditions: kinase inhibitory activity. As for the experimental part:
as §2

Assay [4] has as its system human gastric cancer MKN1 cells. As to the kind of experiment: Assay of cell proliferation (CellTiter-Glo). In kind it is cell-based. As to conditions: read-out: MKN1 IC50 of cell proliferation inhibitory activity. As to the method:
as §1
(§3) The cell proliferation assays of human colon cancer HCT-116 cells, human breast cancer MCF-7 cells, human breast cancer HCC1806 cells, human acute myeloid leukemia MV-4-11 cells, and human gastric cancer MKN1 cells were performed according to the same method, with different inoculation densities set according to different cell growth characteristics.
For orientation: In ATP-based viability assays light output follows the ATP content of the culture.

Assay [5] deals with human breast cancer HCC1806 cells. Nature of the assay: Assay of cell proliferation (CellTiter-Glo). In kind it is cell-based. As to conditions: 6 days, read-out: HCC1806 IC50 of cell proliferation inhibitory activity. As to the method:
as §1, §3

Assay [6] concerns the target CDK6/cyclin D3 (Homo sapiens, UniProt Q00534). As to the kind of experiment: Assay of kinase activity (ADP-Glo). It is filed as biochemical. As to conditions: kinase inhibitory activity. As to the method: (§4) CDK/cyclin catalyzes the phosphorylation of a substrate, which concomitantly consumes ATP and produces ADP. The inhibition rate (%) in the presence of a small molecule inhibitor was assessed by measuring the amount of ADP generated in the reaction. The assay compounds were thoroughly mixed by vortexing and then diluted in DMSO to 100× the assay concentration. 40 nL of a compound was transferred to a 384-well assay plate using a nanoliter pipetting system (ECHO® 655 SYSTEM). A 2× kinase solution was prepared using a 1× kinase reaction buffer (50 mM Hepes, 10 mM MgCl2, 0.01% Brij35, 2 mM DTT). 2 µL of the kinase solution was transferred to the 384-well assay plate, and the plate was centrifuged at 1000 rpm for 60 seconds in a microplate centrifuge. The plate was incubated at 25 °C in a biochemical incubator for 10 minutes. A 2x mixture of substrate and ATP was prepared in the kinase reaction buffer. Then, 2 µL of the mixture of substrate and ATP was added to the 384-well assay plate. The plate was centrifuged at 1000 rpm for 60 seconds in a microplate centrifuge, and incubated at 25 °C in a biochemical incubator for 60 minutes. 4 µL of ADP-Glo Reagent (Cat. No. V9103, manufacturer: Promega) incubated at 25 °C in a biochemical incubator was added to each well of the 384-well assay plate. The plate was centrifuged at 1000 rpm for 60 seconds in a microplate centrifuge, and incubated at 25 °C in a biochemical incubator for 40 minutes. 8 µL of Detection Reagent incubated at 25 °C in a biochemical incubator was added to each well of the 384-well assay plate. The plate was centrifuged at 1000 rpm for 60 seconds in a microplate centrifuge, and incubated at 25 °C in a biochemical incubator for 40 minutes. Finally, luminescence signals were read using a multifunctional microplate reader (model: PHERAstar FSX, manufacturer: BMG). IC50 values were calculated by nonlinear fitting of the concentration-response curves using GraphPad Prism software.
Background: ADP-Glo turns the ADP formed in a reaction into a luminescent signal.

In assay [7] the target is CDK9/cyclin T1 (Homo sapiens, UniProt P50750). Nature of the assay: Assay of kinase activity (ADP-Glo). It is filed as biochemical. As to conditions: kinase inhibitory activity. As to the method:
as §4

Setting [8] is: Homo sapiens, MKN-1, 144 h, MNK1, 6 days.

Where two headings read alike, the source gives them in different places.

Sequence of CDK6/cyclin D3 (Q00534 whole entry, species assumed): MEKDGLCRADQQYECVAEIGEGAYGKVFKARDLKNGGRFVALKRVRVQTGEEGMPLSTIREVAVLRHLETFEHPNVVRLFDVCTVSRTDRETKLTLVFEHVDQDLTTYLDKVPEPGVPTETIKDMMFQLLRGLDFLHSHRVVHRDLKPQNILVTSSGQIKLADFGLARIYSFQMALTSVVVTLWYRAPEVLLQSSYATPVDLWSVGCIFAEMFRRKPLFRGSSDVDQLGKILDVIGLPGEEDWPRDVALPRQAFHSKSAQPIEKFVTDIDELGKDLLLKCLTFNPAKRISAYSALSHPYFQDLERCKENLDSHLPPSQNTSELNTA
Sequence of CDK6/cyclin D3 (P30281 whole entry partner, species assumed): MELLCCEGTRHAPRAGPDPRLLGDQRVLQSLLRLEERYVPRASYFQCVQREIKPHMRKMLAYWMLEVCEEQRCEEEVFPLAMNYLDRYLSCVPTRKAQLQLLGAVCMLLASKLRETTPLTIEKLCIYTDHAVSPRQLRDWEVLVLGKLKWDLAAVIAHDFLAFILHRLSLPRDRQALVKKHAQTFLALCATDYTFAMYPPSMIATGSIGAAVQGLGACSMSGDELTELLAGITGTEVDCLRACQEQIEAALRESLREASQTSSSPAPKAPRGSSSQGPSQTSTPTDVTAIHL
Sequence of CDK9/cyclin T1 (P50750 whole entry, species assumed): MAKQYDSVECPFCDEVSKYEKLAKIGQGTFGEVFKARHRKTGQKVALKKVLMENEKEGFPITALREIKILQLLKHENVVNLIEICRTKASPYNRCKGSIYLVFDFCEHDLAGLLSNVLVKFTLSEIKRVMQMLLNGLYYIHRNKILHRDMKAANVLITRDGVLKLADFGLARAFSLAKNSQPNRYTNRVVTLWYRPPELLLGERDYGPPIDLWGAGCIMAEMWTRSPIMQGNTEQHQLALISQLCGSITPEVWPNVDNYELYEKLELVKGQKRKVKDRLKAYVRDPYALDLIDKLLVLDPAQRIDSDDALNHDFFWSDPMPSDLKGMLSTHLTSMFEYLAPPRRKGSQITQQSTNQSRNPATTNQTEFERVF
Sequence of CDK9/cyclin T1 (O60563 whole entry partner, species assumed): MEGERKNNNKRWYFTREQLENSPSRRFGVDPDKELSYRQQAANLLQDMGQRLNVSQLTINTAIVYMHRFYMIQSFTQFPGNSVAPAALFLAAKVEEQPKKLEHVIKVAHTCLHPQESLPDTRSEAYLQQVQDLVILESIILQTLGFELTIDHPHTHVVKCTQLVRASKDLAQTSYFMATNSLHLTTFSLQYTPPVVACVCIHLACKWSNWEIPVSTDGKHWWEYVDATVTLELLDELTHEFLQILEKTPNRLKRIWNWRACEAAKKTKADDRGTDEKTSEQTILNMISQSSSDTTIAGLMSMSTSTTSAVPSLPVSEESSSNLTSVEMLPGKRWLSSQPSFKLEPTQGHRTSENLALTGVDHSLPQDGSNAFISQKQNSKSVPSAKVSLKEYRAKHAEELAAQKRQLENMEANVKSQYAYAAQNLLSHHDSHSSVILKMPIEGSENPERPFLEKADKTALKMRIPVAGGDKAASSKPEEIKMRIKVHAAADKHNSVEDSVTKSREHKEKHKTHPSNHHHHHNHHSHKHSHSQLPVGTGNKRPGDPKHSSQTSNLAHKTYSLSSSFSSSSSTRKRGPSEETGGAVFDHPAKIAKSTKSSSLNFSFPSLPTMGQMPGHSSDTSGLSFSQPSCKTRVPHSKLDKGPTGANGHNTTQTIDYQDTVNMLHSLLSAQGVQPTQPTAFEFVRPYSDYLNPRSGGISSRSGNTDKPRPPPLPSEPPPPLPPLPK
Sequence of CDK4/cyclin D1 (P11802 whole entry, species assumed): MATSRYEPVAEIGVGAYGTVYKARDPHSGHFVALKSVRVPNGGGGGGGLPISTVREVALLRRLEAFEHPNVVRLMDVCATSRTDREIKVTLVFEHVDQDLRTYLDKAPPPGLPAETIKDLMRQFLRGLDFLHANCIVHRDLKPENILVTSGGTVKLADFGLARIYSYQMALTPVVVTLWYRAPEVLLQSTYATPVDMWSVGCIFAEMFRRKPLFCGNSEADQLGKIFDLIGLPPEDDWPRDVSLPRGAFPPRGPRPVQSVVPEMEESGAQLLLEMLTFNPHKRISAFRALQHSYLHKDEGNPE
Sequence of CDK4/cyclin D1 (P24385 whole entry partner, species assumed): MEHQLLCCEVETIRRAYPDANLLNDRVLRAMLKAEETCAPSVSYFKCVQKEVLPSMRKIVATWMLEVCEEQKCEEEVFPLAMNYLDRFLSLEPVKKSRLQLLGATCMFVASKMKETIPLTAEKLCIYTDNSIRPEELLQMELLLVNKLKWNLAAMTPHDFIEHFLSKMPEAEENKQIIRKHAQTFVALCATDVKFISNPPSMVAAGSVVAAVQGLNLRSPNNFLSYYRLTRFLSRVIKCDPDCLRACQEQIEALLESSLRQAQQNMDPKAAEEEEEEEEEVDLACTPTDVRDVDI

In the case of `CC(C)n1nnc2c(C(F)F)cc3cnc(Nc4ccc(C(=O)N5CCCN(C)CC5)cc4)nc3c21` [Example I-47, (4-((4-(Difluoromethyl)-1-isopropyl-1H-[1,2,3]triazolo[4,5-H]quinazolin-8-yl)amino)phenyl)(4-methyl-1,4-diazepan-1-yl)methanone], the IC50 came to 146 nM in assay [1] (Homo sapiens, OVCAR-3, 144 h); 0.7 nM in assay [2]; 2 nM in assay [3]; 111 nM in assay [4] (setting [8]); 169 nM in assay [5] (Homo sapiens, 144 h); 20 nM in assay [6]. The IC50 in assay [7] turned out to be 148 nM.

As to `C[C@@H](CO)n1nnc2ccc3cnc(Nc4ccc(C(=O)N5CCNCC5)cc4)nc3c21` [Example I-48, (S)-(4-((1-(1-Hydroxypropan-2-yl)-1H-[1,2,3]triazolo[4,5-H]quinazolin-8-yl)amino)phenyl)(piperazin-1-yl)methanone], the IC50 is 3 nM in assay [2]; 7 nM in assay [3]; 5500 nM in assay [5] (Homo sapiens, 144 h); 205 nM in assay [6]; 344 nM in assay [7].

As for `CC(C)n1nnc2ccc3cnc(Nc4ccc(C(=O)N5CCN(CCCO)CC5)cc4)nc3c21` [Example I-31, (4-(3-Hydroxypropyl)piperazin-1-yl)(4-((1-isopropyl-1H-[1,2,3]triazolo[4,5-H]quinazolin-8-yl)amino)phenyl)metha none], the IC50 was determined as 193 nM in assay [1] (Homo sapiens, OVCAR-3, 144 h); 7 nM in assay [2]; 8 nM in assay [3]; 67 nM in assay [4] (setting [8]); 273 nM in assay [5] (Homo sapiens, 144 h); 89 nM in assay [6]. The same compound came in with an IC50 in assay [7] of 380 nM.

For `CC(C)n1nnc2ccc3cnc(Nc4ccc(C(=O)N5CCC(N(C)C)CC5)cc4)nc3c21` [Example I-15, (4-(Dimethylamino)piperidin-1-yl)(4-((1-isopropyl-1H-[1,2,3]triazolo[4,5-H]quinazolin-8-yl)amino)phenyl)metha none], the IC50 in assay [1] (Homo sapiens, OVCAR-3, 144 h) was 264 nM; in assay [2] it was 1 nM; in assay [3] it was 2 nM; in assay [5] (Homo sapiens, 144 h), 177 nM; in assay [6], 94 nM; in assay [7], 44 nM.

Regarding `CC(C)n1nnc2c(C(F)F)cc3cnc(Nc4ccc(C(=O)N5CCCNCC5)cc4)nc3c21` [Example I-46], the IC50 in assay [1] (Homo sapiens, OVCAR-3, 144 h) was 275 nM; in assay [2], 0.7 nM; in assay [3], 3 nM; in assay [4] (setting [8]), 170 nM; in assay [5] (Homo sapiens, 144 h), 317 nM; in assay [6], 24 nM. The same compound yielded an IC50 in assay [7] of 134 nM.

For “(S)-(3-Aminopyrrolidin-1-yl)(4-(4-(difluoromethyl)-1-isopropyl-1H-[1,2,3]triazolo[4,5-H]quinazolin-8-yl)amino)phenyl)methanone [Example I-43]”, the IC50 was 676 nM in assay [1]; 1 nM in assay [2]; 2 nM in assay [3]; 444 nM in assay [4] (column head MKN1, 6 days); 631 nM in assay [5]; 8 nM in assay [6]. Moreover, the IC50 in assay [7] was determined as 130 nM.

As to `CCN1CCN(C(=O)c2ccc(Nc3ncc4ccc5nnn(C(C)C)c5c4n3)cc2)CC1` [Example I-29, (4-Ethylpiperazin-1-yl)(4-((1-isopropyl-1H-[1,2,3]triazolo[4,5-H]quinazolin-8-yl)amino)phenyl)metha none], the IC50 amounted to 40 nM in assay [1] (Homo sapiens, OVCAR-3, 144 h); 1 nM in assay [2]; 2 nM in assay [3]; 15 nM in assay [4] (setting [8]); 207 nM in assay [5] (Homo sapiens, 144 h); 12 nM in assay [6]. The compound also came in with an IC50 in assay [7] of 6 nM.

In the case of `CC(C)(O)Cn1nnc2ccc3cnc(Nc4ccc(C(=O)N5CCNCC5)cc4)nc3c21` [Example I-52, (4-((1-(2-Hydroxy-2-methylpropyl)-1H-[1,2,3]triazolo[4,5-H]quinazolin-8-yl)amino)phenyl)(piperazin-1-yl)methanone], the IC50 in assay [2] came out at 4 nM; in assay [3], 10 nM; in assay [5] (Homo sapiens, 144 h), 5090 nM; in assay [6], 127 nM; in assay [7], 419 nM.

Consider `CC(C)N1CCN(C(=O)c2ccc(Nc3ncc4ccc5nnn(C(C)C)c5c4n3)cc2)CC1` [Example I-30, (4-Isopropylpiperazin-1-yl)(4-((1-isopropyl-1H-[1,2,3]triazolo[4,5-H]quinazolin-8-yl)amino)phenyl)metha none], for which the IC50 in assay [1] (Homo sapiens, OVCAR-3, 144 h) was found to be 19 nM; in assay [2], 1 nM; in assay [3] it was 2 nM; in assay [4] (setting [8]), 20 nM; in assay [5] (Homo sapiens, 144 h), 151 nM; in assay [6], 94 nM. This compound also came in with an IC50 in assay [7] of 44 nM.

As for `CC(C)(O)Cn1nnc2ccc3cnc(Nc4ccc(C(=O)N5CCOCC5)cc4)nc3c21` [Example I-53, (4-((1-(2-Hydroxy-2-methylpropyl)-1H-[1,2,3]triazolo[4,5-H]quinazolin-8-yl)amino)phenyl)(morpholino)methanone], the IC50 came out at 1720 nM in assay [1] (Homo sapiens, OVCAR-3, 144 h); 8 nM in assay [2]; 49 nM in assay [3]; 3170 nM in assay [5] (Homo sapiens, 144 h); 803 nM in assay [6]; 995 nM in assay [7].

In the case of `C[C@@H](CO)n1nnc2ccc3cnc(Nc4ccc(C(=O)N5CCOCC5)cc4)nc3c21` [Example I-49, (S)-(4-((1-(1-Hydroxypropan-2-yl)-1H-[1,2,3]triazolo[4,5-H]quinazolin-8-yl)amino)phenyl)(morpholino)methanone], the IC50 came out at 1370 nM in assay [1] (Homo sapiens, OVCAR-3, 144 h); 3 nM in assay [2]; 21 nM in assay [3]; 2160 nM in assay [5] (Homo sapiens, 144 h); 401 nM in assay [6]; 390 nM in assay [7].
